Experimental data taken from PubChem BioAssay AID624144 (National Center for Advancing Translational Sciences (NCATS), 2012).

Tested on: human plasma stability, LC-MS/MS, 48 h
Experiment: qHTS Assay to Find Inhibitors of T. brucei phosphofructokinase: Human Plasma Stability Profiling
Details: at 2 µM; stronger effect = lower value

percent remaining in plasma (higher = more stable): 100%
Compound: O=C(Cc1ccc(Cl)c(Cl)c1)Nc1ccc(S(=O)(=O)Nc2ccon2)cc1
